{"source": "patent US10758531B2", "about": "“Regimens and compositions for treating HIV infections and AIDS” (ViiV Healthcare Company, priority 2016, dated 2020)", "key": {"[1]": {"target": "CYP3A4 (Homo sapiens, UniProt P08684)", "sequence (P08684 whole entry)": "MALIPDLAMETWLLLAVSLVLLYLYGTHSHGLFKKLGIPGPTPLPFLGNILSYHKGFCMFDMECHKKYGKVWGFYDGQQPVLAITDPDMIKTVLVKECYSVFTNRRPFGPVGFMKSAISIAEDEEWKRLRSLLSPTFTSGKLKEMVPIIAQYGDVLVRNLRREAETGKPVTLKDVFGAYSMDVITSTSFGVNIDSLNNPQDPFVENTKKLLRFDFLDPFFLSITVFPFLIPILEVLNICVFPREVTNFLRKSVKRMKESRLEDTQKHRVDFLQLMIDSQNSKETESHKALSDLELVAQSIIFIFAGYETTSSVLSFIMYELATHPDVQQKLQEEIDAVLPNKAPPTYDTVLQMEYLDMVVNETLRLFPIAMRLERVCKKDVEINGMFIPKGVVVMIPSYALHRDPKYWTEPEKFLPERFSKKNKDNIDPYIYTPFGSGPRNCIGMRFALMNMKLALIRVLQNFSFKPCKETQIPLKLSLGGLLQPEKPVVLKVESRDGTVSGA", "settings": "cited from earlier work"}, "[2]": {"target": "P-gp (Homo sapiens, UniProt P08183)", "sequence (P08183 whole entry)": "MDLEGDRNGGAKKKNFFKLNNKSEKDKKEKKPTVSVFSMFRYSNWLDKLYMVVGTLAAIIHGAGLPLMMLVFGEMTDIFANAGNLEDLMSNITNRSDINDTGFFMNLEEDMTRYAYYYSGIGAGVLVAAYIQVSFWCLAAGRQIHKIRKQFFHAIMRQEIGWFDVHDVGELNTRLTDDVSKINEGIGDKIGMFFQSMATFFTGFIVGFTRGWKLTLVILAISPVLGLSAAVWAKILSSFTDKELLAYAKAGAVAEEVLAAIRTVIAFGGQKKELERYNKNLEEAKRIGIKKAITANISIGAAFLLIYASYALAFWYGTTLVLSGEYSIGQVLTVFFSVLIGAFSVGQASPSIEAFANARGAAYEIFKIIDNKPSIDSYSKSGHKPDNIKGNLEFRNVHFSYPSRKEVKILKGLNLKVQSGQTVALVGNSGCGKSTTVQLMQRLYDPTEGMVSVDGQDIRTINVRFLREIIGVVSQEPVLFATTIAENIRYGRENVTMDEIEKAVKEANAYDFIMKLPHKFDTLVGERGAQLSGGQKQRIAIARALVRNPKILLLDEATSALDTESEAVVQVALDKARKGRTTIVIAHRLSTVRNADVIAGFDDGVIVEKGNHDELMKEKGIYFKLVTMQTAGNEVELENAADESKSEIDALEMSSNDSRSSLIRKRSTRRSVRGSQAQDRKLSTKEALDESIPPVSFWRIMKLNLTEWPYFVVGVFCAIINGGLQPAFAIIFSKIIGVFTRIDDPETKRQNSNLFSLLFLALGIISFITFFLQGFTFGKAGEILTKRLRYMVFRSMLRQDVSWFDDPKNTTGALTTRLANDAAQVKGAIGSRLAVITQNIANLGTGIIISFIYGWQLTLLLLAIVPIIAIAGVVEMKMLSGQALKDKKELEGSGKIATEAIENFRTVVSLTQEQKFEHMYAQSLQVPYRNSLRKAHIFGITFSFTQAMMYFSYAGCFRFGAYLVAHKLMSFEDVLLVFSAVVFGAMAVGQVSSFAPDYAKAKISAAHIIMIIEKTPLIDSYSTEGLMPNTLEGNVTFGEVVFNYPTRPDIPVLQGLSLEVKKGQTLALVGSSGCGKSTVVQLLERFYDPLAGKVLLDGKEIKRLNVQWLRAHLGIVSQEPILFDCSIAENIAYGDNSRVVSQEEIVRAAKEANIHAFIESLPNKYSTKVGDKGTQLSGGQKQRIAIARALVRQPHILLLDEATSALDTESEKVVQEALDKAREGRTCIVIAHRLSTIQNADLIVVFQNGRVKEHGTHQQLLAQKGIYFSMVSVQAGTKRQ", "settings": "in vitro; cited from earlier work"}, "[3]": {"target": "T1, UGT1A3 (Homo sapiens, UniProt P35503)", "T1 sequence (P35503 29-534)": "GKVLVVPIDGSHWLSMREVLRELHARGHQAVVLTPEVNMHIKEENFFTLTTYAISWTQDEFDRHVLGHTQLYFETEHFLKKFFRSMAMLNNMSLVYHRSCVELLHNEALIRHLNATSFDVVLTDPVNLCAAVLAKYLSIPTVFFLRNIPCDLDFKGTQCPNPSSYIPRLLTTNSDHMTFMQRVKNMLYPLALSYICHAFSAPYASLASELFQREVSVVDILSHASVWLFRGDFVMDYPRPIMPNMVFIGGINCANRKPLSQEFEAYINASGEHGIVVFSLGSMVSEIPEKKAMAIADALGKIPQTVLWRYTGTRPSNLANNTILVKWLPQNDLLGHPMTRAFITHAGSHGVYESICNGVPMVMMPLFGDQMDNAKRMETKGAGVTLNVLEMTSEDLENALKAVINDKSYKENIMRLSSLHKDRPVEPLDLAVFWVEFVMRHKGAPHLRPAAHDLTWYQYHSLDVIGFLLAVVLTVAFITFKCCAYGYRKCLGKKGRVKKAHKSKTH", "settings": "in vitro; cited from earlier work"}, "[4]": {"target": "T2, UGT1A1 (Homo sapiens, UniProt P22309)", "T2 sequence (P22309 26-533)": "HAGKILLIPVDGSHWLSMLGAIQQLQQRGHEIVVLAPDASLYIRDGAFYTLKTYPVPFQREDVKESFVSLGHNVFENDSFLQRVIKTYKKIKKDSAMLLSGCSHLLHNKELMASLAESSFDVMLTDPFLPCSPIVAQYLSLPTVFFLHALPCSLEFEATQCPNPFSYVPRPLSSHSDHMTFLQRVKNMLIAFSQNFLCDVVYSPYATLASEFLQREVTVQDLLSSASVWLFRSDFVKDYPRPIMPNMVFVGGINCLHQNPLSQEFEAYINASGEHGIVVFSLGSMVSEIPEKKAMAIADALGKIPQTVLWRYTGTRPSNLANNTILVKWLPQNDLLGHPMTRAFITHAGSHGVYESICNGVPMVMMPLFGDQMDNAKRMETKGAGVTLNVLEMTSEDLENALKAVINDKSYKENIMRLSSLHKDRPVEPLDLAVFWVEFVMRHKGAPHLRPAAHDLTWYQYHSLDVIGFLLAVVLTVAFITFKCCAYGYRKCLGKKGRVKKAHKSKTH", "settings": "cited from earlier work"}, "[5]": {"target": "T3, BCRP (Homo sapiens, UniProt Q9UNQ0)", "T3 sequence (Q9UNQ0 1-655)": "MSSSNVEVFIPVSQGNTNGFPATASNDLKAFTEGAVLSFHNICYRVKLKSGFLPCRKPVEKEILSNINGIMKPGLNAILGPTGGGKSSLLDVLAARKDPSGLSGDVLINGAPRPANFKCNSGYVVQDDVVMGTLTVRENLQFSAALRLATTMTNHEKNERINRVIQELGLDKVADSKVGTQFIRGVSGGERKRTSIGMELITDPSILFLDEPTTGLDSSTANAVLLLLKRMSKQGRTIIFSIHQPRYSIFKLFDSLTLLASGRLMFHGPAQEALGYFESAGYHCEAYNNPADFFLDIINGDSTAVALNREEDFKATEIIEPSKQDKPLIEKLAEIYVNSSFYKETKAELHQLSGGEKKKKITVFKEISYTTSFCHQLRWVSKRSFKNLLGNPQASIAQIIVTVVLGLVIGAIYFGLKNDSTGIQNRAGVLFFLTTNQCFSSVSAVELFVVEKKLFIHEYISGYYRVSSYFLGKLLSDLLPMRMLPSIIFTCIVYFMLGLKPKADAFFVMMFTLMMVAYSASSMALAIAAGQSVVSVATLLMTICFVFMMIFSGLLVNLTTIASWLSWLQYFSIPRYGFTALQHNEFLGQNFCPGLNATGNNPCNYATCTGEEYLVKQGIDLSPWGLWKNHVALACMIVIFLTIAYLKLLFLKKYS", "settings": "in vitro; cited from earlier work"}, "[6]": {"target": "T4, UGT1A9 (Homo sapiens, UniProt O60656)", "T4 sequence (O60656 26-530)": "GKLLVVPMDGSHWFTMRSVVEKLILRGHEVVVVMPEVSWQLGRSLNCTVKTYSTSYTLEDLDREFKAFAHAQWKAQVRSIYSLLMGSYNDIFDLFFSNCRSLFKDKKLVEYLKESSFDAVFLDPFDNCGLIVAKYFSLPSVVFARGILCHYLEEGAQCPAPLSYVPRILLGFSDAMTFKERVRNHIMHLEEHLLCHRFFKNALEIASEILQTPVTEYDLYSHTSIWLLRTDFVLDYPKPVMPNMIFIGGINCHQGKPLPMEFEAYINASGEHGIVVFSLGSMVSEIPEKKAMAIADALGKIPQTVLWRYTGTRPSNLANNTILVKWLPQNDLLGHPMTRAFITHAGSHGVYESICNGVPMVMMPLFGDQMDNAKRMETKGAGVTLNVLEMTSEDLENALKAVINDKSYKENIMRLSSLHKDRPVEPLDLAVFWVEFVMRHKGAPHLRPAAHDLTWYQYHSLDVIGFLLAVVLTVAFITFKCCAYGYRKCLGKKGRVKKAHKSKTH", "settings": "in vitro; cited from earlier work"}, "[7]": {"experiment": "Drug-drug interactions: effect on concentration on co-administration (Table 1)"}, "[8]": {"target": "T5, human cellular DNA polymerase γ (Homo sapiens, UniProt P54098)", "T5 sequence (P54098 1-1239)": "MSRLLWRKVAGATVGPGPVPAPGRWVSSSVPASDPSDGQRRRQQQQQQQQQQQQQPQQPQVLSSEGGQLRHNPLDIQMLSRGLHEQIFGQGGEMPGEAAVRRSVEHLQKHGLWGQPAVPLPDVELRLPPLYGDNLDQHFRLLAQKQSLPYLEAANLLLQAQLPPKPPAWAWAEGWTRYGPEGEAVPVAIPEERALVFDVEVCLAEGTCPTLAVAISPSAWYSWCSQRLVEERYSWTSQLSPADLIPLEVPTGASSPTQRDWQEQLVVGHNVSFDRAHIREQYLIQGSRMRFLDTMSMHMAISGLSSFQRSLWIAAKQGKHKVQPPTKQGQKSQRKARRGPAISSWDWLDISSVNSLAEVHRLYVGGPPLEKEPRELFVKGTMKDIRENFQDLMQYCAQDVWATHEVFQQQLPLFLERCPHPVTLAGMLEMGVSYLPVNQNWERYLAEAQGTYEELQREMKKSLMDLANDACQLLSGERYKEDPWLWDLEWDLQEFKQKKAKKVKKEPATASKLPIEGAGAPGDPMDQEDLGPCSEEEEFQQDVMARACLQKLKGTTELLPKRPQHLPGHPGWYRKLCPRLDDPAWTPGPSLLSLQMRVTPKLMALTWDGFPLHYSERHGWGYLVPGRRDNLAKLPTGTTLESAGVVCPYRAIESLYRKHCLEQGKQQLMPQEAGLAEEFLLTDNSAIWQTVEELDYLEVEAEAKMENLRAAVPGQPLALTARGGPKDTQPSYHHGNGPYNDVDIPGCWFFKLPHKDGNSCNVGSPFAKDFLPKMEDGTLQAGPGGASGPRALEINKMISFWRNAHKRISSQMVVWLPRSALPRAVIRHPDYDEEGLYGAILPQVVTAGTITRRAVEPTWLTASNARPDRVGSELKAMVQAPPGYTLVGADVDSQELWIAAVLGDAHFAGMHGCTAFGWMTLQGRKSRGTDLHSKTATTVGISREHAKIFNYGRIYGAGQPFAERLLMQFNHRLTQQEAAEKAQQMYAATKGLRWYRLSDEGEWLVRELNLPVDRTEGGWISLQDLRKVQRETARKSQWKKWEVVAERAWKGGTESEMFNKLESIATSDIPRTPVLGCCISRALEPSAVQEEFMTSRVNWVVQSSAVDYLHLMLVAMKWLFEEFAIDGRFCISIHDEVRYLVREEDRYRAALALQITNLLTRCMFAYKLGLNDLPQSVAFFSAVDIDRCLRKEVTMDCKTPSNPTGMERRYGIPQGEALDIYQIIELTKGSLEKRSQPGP", "settings": "cited from earlier work"}, "[9]": {"target": "T6, human cellular DNA polymerase α (Homo sapiens, UniProt P09884)", "T6 sequence (P09884 1-1462)": "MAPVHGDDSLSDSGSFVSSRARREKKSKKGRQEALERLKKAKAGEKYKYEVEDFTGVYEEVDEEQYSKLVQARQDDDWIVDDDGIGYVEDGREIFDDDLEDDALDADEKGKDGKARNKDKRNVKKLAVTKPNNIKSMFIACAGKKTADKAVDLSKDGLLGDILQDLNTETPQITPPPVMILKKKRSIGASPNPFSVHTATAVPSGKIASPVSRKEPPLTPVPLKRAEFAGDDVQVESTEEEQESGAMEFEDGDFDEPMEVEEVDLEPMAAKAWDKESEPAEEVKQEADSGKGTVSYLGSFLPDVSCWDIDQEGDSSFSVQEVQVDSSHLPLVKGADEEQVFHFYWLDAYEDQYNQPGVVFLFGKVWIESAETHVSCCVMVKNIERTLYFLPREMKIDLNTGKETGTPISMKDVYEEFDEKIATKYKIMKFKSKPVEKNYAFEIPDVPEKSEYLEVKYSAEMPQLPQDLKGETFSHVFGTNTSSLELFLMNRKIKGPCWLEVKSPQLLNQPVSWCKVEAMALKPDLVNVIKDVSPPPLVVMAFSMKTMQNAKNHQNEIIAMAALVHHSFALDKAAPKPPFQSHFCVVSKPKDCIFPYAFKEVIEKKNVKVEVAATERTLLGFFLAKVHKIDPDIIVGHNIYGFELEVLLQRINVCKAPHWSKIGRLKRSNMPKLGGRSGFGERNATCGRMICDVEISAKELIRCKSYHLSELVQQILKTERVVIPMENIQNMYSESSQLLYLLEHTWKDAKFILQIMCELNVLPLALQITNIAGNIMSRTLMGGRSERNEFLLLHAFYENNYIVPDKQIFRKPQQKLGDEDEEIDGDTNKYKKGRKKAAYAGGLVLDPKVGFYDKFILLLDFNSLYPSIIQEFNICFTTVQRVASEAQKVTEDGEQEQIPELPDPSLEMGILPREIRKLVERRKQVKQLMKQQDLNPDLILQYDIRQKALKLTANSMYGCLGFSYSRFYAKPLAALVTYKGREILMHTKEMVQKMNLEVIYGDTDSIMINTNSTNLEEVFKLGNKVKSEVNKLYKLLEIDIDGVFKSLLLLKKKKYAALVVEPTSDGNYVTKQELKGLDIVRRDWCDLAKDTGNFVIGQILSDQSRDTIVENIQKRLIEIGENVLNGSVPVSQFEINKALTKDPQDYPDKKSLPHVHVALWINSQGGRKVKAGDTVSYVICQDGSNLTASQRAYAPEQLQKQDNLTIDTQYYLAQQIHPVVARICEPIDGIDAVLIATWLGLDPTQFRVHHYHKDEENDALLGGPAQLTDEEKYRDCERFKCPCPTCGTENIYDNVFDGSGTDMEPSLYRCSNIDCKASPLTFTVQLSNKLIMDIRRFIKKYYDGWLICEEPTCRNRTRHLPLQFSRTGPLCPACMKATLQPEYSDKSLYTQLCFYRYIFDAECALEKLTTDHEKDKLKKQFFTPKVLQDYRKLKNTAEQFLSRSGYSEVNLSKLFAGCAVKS", "settings": "cited from earlier work"}, "[10]": {"target": "human cellular DNA polymerase β (Homo sapiens, UniProt P06746)", "settings": "cited from earlier work"}, "[11]": {"system": "CYP3A", "settings": "cited from earlier work"}, "[12]": {"system": "CYP enzymes", "settings": "rilpivirine 25 mg once daily; cited from earlier work"}}}
{"smiles": "O=C(NCc1c(F)cc(F)cc1F)c1cn2c(c(O)c1=O)C(=O)N1[C@H]3CC[C@H](C3)O[C@@H]1C2", "note": "[Bictegravir, (2R,5S,13aR)-8-hidroxi-7,9-dioxo-N-[(2,4,6-trifluorofenil)metil]-2,3,4,5,7,9,13,13a-octahidro-2,5-metanopirido [1′,2′:4,5]pirazino[2,1-b][1,3]oxazepina-10-carboxamida]", "values": [{"measurement": "Metabolic clearance through CYP3A4", "setting": "[1]", "value": "metabolically cleared"}, {"measurement": "Substrate of P-gp", "setting": "[2]", "value": "substrate"}, {"measurement": "Substrate of UGT1A3", "setting": "[3]", "value": "substrate"}, {"measurement": "Metabolic clearance through UGT1A1", "setting": "[4]", "value": "metabolically cleared"}, {"measurement": "Substrate of BCRP", "setting": "[5]", "value": "substrate"}, {"measurement": "Substrate of UGT1A9", "setting": "[6]", "value": "substrate"}]}
{"smiles": "CN(C)C(=N)N=C(N)N", "note": "[Metformin]", "values": [{"measurement": "Effect on Concentration", "setting": "[7]; concomitant use of metformin and a composition of the invention", "value": "↑Metformin"}]}
{"smiles": "CCC(=O)C(CC(C)N(C)C)(c1ccccc1)c1ccccc1", "note": "(centres unmarked) [Methadone]", "values": [{"measurement": "Effect on Concentration", "setting": "[7]; concomitant use of methadone and a composition of the invention", "value": "↔Methadone"}]}
{"smiles": "CO[C@H]1/C=C/O[C@@]2(C)Oc3c(C)c(O)c4c(c3C2=O)C2=NC3(CCN(CC(C)C)CC3)NC2=C(NC(=O)/C(C)=C\\C=C\\[C@H](C)[C@H](O)[C@@H](C)[C@@H](O)[C@@H](C)[C@H](OC(C)=O)[C@@H]1C)C4=O", "note": "[Rifabutin]", "values": [{"measurement": "Effect on Concentration", "setting": "[7]; concomitant use of rifabutin and a composition of the invention", "value": "↔Rifabutin"}]}
{"smiles": "Cc1cc(/C=C/C#N)cc(C)c1Nc1ccnc(Nc2ccc(C#N)cc2)n1", "note": "[Rilpivirine, 4-[[4-[[4-[(E)-2-cyanoethenyl]-2,6-dimethylphenyl]amino]-2-pyrimidinyl]amino]benzonitrile]", "values": [{"measurement": "Inhibition of human cellular DNA polymerase γ", "setting": "[8]", "value": "does not inhibit"}, {"measurement": "Inhibition of human cellular DNA polymerase α", "setting": "[9]", "value": "does not inhibit"}, {"measurement": "Inhibition of human cellular DNA polymerase β", "setting": "[10]", "value": "does not inhibit"}, {"measurement": "Metabolism by CYP3A", "setting": "[11]", "value": "primarily metabolized"}, {"measurement": "Effect on the exposure of medicinal products metabolized by CYP enzymes", "setting": "[12]", "value": "not likely to have a clinically relevant effect"}]}
